Legend:
[1] = excess molar enthalpy (molar enthalpy of mixing); xn = mol fraction of the nth substance listed; details: 298.15 K, 101 kPa, Liquid
[2] = xn = mol fraction of the nth substance listed; details: 298.15 K, 101 kPa, Liquid

BrCCCCCBr [1,5-dibromopentane] + CCCCC(=O)OC
Details | excess molar enthalpy [kcal/mol] | mass density [kg/m3]
[1], x2 = 0.0709 | 0.011 | –
[1], x2 = 0.1603 | 0.0179 | –
[1], x2 = 0.2511 | 0.0203 | –
[1], x2 = 0.3436 | 0.0192 | –
[1], x2 = 0.4221 | 0.0158 | –
[1], x2 = 0.4895 | 0.0112 | –
[1], x2 = 0.5345 | 0.00609 | –
[1], x2 = 0.5389 | 0.00564 | –
[1], x2 = 0.5838 | 0.00184 | –
[1], x2 = 0.606 | -0.00203 | –
[1], x2 = 0.6821 | -0.00554 | –
[1], x2 = 0.7721 | -0.00777 | –
[1], x2 = 0.8617 | -0.00657 | –
[1], x2 = 0.943 | -0.000574 | –
[2], x2 = 0.0687 | – | 1640.97
[2], x2 = 0.1285 | – | 1593.96
[2], x2 = 0.1833 | – | 1550.6
[2], x2 = 0.2445 | – | 1501.98
[2], x2 = 0.3066 | – | 1452.48
[2], x2 = 0.4193 | – | 1362.14
[2], x2 = 0.4804 | – | 1312.78
[2], x2 = 0.5408 | – | 1263.86
[2], x2 = 0.601 | – | 1214.87
[2], x2 = 0.6553 | – | 1170.47
[2], x2 = 0.7137 | – | 1122.58
[2], x2 = 0.7698 | – | 1076.41
[2], x2 = 0.822 | – | 1033.27
[2], x2 = 0.8841 | – | 981.75

BrCCCCCCBr [1,6-dibromohexane] + COC(C)=O
Details | excess molar enthalpy [kcal/mol] | mass density [kg/m3]
[1], x2 = 0.1165 | 0.063 | –
[1], x2 = 0.2329 | 0.104 | –
[1], x2 = 0.317 | 0.13 | –
[1], x2 = 0.4064 | 0.148 | –
[1], x2 = 0.4865 | 0.156 | –
[1], x2 = 0.553 | 0.156 | –
[1], x2 = 0.6074 | 0.151 | –
[1], x2 = 0.6546 | 0.143 | –
[1], x2 = 0.6988 | 0.135 | –
[1], x2 = 0.7443 | 0.124 | –
[1], x2 = 0.7905 | 0.108 | –
[1], x2 = 0.837 | 0.0889 | –
[1], x2 = 0.8808 | 0.0701 | –
[1], x2 = 0.9257 | 0.0424 | –
[1], x2 = 0.9683 | 0.0205 | –
[2], x2 = 0.2073 | – | 1527.77
[2], x2 = 0.2887 | – | 1489.28
[2], x2 = 0.368 | – | 1448.7
[2], x2 = 0.44 | – | 1408.44
[2], x2 = 0.5134 | – | 1363.84
[2], x2 = 0.5691 | – | 1327.2
[2], x2 = 0.6301 | – | 1284.18
[2], x2 = 0.7305 | – | 1205.44
[2], x2 = 0.7765 | – | 1165.56
[2], x2 = 0.8189 | – | 1126.42
[2], x2 = 0.8614 | – | 1084.46
[2], x2 = 0.8974 | – | 1046.81
[2], x2 = 0.9345 | – | 1005.74
[2], x2 = 0.9663 | – | 968.1

BrCCCBr [1,3-dibromopropane] + COC=O
Details | excess molar enthalpy [kcal/mol] | mass density [kg/m3]
[1], x2 = 0.0766 | 0.0726 | –
[1], x2 = 0.1698 | 0.136 | –
[1], x2 = 0.2646 | 0.178 | –
[1], x2 = 0.3543 | 0.204 | –
[1], x2 = 0.4503 | 0.219 | –
[1], x2 = 0.5147 | 0.221 | –
[1], x2 = 0.5752 | 0.216 | –
[1], x2 = 0.6318 | 0.206 | –
[1], x2 = 0.6814 | 0.192 | –
[1], x2 = 0.7238 | 0.176 | –
[1], x2 = 0.7605 | 0.159 | –
[1], x2 = 0.8277 | 0.123 | –
[1], x2 = 0.8783 | 0.0928 | –
[1], x2 = 0.9299 | 0.0593 | –
[2], x2 = 0.168 | – | 1858.59
[2], x2 = 0.2514 | – | 1796.92
[2], x2 = 0.3294 | – | 1735.49
[2], x2 = 0.4017 | – | 1674.57
[2], x2 = 0.4684 | – | 1614.73
[2], x2 = 0.5278 | – | 1558.51
[2], x2 = 0.591 | – | 1495.15
[2], x2 = 0.6438 | – | 1439.24
[2], x2 = 0.7014 | – | 1374.75
[2], x2 = 0.7953 | – | 1261.18
[2], x2 = 0.8394 | – | 1203.31
[2], x2 = 0.8849 | – | 1141.17
[2], x2 = 0.9258 | – | 1082.23

BrCCCBr [1,3-dibromopropane] + CCCC(=O)OC
Details | excess molar enthalpy [kcal/mol] | mass density [kg/m3]
[1], x2 = 0.0571 | 0.00789 | –
[1], x2 = 0.1319 | 0.0136 | –
[1], x2 = 0.2164 | 0.0167 | –
[1], x2 = 0.3018 | 0.0163 | –
[1], x2 = 0.3823 | 0.0126 | –
[1], x2 = 0.4559 | 0.00676 | –
[1], x2 = 0.5207 | -0.000191 | –
[1], x2 = 0.5371 | -0.00325 | –
[1], x2 = 0.5718 | -0.00545 | –
[1], x2 = 0.6497 | -0.00978 | –
[1], x2 = 0.7433 | -0.0109 | –
[1], x2 = 0.8389 | -0.00956 | –
[1], x2 = 0.9316 | -0.00511 | –
[2], x2 = 0.0527 | – | 1904.53
[2], x2 = 0.1033 | – | 1844.63
[2], x2 = 0.1625 | – | 1775.48
[2], x2 = 0.2135 | – | 1716.63
[2], x2 = 0.268 | – | 1654.61
[2], x2 = 0.3273 | – | 1588.07
[2], x2 = 0.3844 | – | 1524.77
[2], x2 = 0.4397 | – | 1464.34
[2], x2 = 0.4966 | – | 1402.92
[2], x2 = 0.5597 | – | 1335.77
[2], x2 = 0.6194 | – | 1273.09
[2], x2 = 0.6773 | – | 1213.28
[2], x2 = 0.7401 | – | 1149.07
[2], x2 = 0.8089 | – | 1079.72
[2], x2 = 0.8623 | – | 1026.6
[2], x2 = 0.9397 | – | 950.76

— the NIST ThermoML archive (doi:10.1016/j.jct.2006.05.004)
